This passage reports IC50 results from patent US11161830B2, “4-pyridone compound or salt thereof, and pharmaceutical composition and formulation including same” (priority 2017, dated 2021).

One test has as its system HBV. Put plainly: Test Example 1-1: anti-HBV assay in HepG2.2.15 cells (test solution 200 μL/well). It is filed as cell-based, hepatitis B virus. The note with it: culture supernatant. On the procedure: Using HepG2.2.15 cells (Proc. Natl. Acad. Sci. USA, 84, 1005-1009, 1987) which have an HBV genome introduced into a hepatoblastoma cell line, HepG2, and persistently produce a virus, the anti-HBV activity of the representative compounds was evaluated in the following procedure.
(§1) The following was used as a medium:
DMEM/F-12, GlutaMAX (manufactured by Invitrogen)+5 μg/mL insulin (manufactured by Wako)+1% penicillin/streptomycin (manufactured by Sigma)+10 mmol/L HEPES (manufactured by Sigma)+50 μmol/L hydrocortisone (manufactured by Sigma)+10% FBS
A mixture of a test compound with dimethyl sulfoxide (DMSO) was further added to the medium to obtain a final concentration of DMSO of 0.25% (v/v), and thus, test solutions containing the test compound at various concentrations were prepared. In addition, a test solution obtained by adding DMSO alone to the medium to obtain a final concentration of 0.25% (v/v) was prepared as a control without addition of a drug.
(1) The HepG2.2.15 cells were suspended in the medium to prepare a. HepG2.2.15 cell suspension at 4×10^5 cells/mL. The suspension was seeded in a 96-well microtiter plate (100 μL/well) and the plate was incubated in a 5% CO2 incubator at 37° C. for 2 days.
(2) The culture supernatant was removed and the cells were washed twice with PBS (−) (100 μL/well).
(3) The test solution (200 μL/well) was added to the plate of (2) and the plate was incubated in a 5% CO2 incubator at 37° C. for 4 days.
(4) The culture supernatant was removed, the test solution (200 μL/well) was added again to the plate, and the plate was incubated in a 5% CO2 incubator at 37° C. for 3 days.
(5) The culture supernatant was collected and treated with a mixture of Buffer AL (manufactured by QIAGEN) and Proteinase K (manufactured by Invitrogen). The amount of DNA of HBV (HBV-DNA) in the obtained solution was absolutely quantified by a real-time PCR method. In addition, HBsAg (hepatitis B surface antigen) in the culture supernatant was absolutely quantified by chemiluminescent enzyme immunoassay using Lumipulse (registered trademark) HBsAg-HQ (manufactured by Fujirebio Inc.). The relative viral load (%) of a well with the compound added to a well without the compound added was calculated. An IC50 of the compound was calculated using a FORECAST function (linear regression method) of Microsoft Office Excel 2007 by plotting the logarithm of the concentration against the relative viral load as a real number.
The IC50 of HBV-DNA was defined as a concentration (or a logarithm dilution of the culture supernatant) of the compound, in which the amount of HBV-DNA is reduced by 50% as compared a control without the compound added.
In addition, the IC50 of HBsAg was defined as a concentration (or a logarithm dilution of the culture supernatant) of the compound, in which the amount of HBsAg is reduced by 50% as compared a control without the compound added.

The test system of a further test is HBV (genotype AeUS). Put plainly: Test Example 2-1: anti-HBV assay in PXB-cells (fresh human hepatocytes). The test is classed as cell-based, hepatitis B virus. The note with it: PXB-cells infected with HBV genotype AeUS, culture supernatant on day 32 post infection. How it is done: Using fresh human hepatocytes (PXB-cells, manufactured by PhenixBio Co., Ltd.) collected from a PXB mouse (a chimeric mouse with human hepatocytes), the anti-HBV activity of the representative compounds was evaluated in the following procedure.
as §1
DMEM (manufactured by Sigma)+0.25 μg/mL insulin (manufactured by Wako)+1% penicillin/streptomycin. (manufactured by Sigma)+20 mmol/L HEPES (manufactured by Sigma)+15 μg/mL L-proline (manufactured by Sigma)+50 nmol/L dexamethasone (manufactured by Sigma)+5 ng/mL EGF (manufactured by Peprotech)+0.1 mmol/L ascorbic acid 2-phosphate (manufactured by Wako)+10% FBS+2% DMSO
Each of the test compounds) was further added to the medium to prepare a test solution containing each of the test compounds at various concentrations.
(1) PXB-cells seeded at a seeding density of 2.1×10^5 cells/cm^2 in a 96-well microliter plate were incubated in a 5% CO2 incubator at 37° C. until a day on which the cells were infected.
(2) HBV (genotype AeUS) derived from a PXB mouse serum was suspended in the medium containing 4% PEG-8000, and added to the plate of (1) at about 10 copies/cell such that the PXB cells were infected (100 μL/well), and the plate was incubated in a 5% CO2 incubator at 37° C. for 1 day.
(3) The culture supernatant on day 1 post infection was removed and the cells were washed three times with DMEM containing 10% FBS and 1% penicillin/streptomycin. Then, the medium was added to the plate (100 μL/well) and the plate was incubated in a 5% CO2 incubator at 37° C. for 1 day.
(4) The culture supernatant on day 2 post infection was removed and the cells were washed three times with DMEM containing 10% FBS and 1% penicillin/streptomycin. Then, the medium was added to the plate (100 μL/well) and the plate was incubated in a 5% CO2 incubator at 37° C. for 5 days.
(5) The culture supernatant on day 7 post infection was removed, the medium was added to the plate (100 μL/well), and the plate was incubated in a 5% CO2 incubator at 37° C. for 5 days.
(6) The culture supernatant on day 12 post infection was removed, the medium was added to the plate (100 μL/well), and the plate was incubated in a 5% CO2 incubator at 37° C. for 5 days.
(7) The culture supernatant on day 17 post infection was removed, the test solution was added to the plate (100 μL/well), and the plate was incubated in a 5% CO2 incubator at 37° C. for 5 days. As a control without the compound added, the medium was added to the plate (100 μL/well) and the plate was incubated in a 5% CO2 incubator at 37° C. for 5 days.
(8) The culture supernatant on day 22 post infection was removed, the test solution was added to the plate (100 μL/well), and the plate was incubated in a 5% CO2 incubator at 37° C. for 5 days. As a control without the compound added, the medium was added to the plate (100 μL/well) and the plate was incubated in a 5% CO2 incubator at 37° C. for 5 days.
(9) The culture supernatant on day 27 post infection was removed, the test solution was added to the plate (100 μL/well), and the plate was incubated in a 5% CO2 incubator at 37° C. for 5 days. As a control without the compound added, the medium was added to the plate (100 μL/well) and the plate was incubated in a 5% CO2 incubator at 37° C. for 5 days.
(10) The culture supernatant on day 32 post infection was collected.
(11) The collected culture supernatant on day 32 post infection was purified with a QIAamp (registered trademark) DNA Blood Mini Kit (manufactured by QIAGEN). The amount of HBV-DNA in the obtained solution was absolutely quantified by a real-time PCR method. In addition, the amount of HBsAg in the culture supernatant was absolutely quantified by chemiluminescent enzyme immunoassay using Lumipulse (registered trademark) HBsAg-HQ (manufactured by Fujirebio Inc.). A relative viral load (%) with respect to a control without the compound added was each calculated. […]

Setting [1] is: Hepatitis B virus, read-out: IC50 HBV-DNA.
Where [2] appears, read: Hepatitis B virus, read-out: IC50 HBsAg.
Where [3] appears, read: Hepatitis B virus, Hepatocyte, read-out: IC50 HBV-DNA.
Where [4] appears, read: Hepatitis B virus, Hepatocyte, read-out: IC50 HBsAg.

Where two headings read alike, the source gives them in different places.

By IC50 is commonly meant the concentration needed to halve the response being measured. On to “1-(2-morpholinebenzo[d]thiazol-6-yl)-4-oxo-6-(4-(pyrrolidin-1-yl)phenyl)-1,4-dihydropyridine-3-carboxylic acid [Example 3-4]”, for which the IC50 in the test with HBV (read-out: IC50 HBV-DNA) turned out to be 5.5 nM; in the test on HBV (read-out: IC50 HBsAg), 5.9 nM; in the test with HBV (genotype AeUS) (read-out: IC50 HBV-DNA) it was 22 nM; in the test with HBV (genotype AeUS) (read-out: IC50 HBsAg) it was 14 nM.

For `O=C(O)c1cn(-c2ccc3ncsc3c2)c(-c2ccc(N3CCCC3)cc2)cc1=O` [Example 3-1, 1-(benzo[d]thiazol-6-yl)-4-oxo-6-(4-(pyrrolidin-1-yl)phenyl)-1,4-dihydropyridine-3-carboxylic acid], the IC50 is 27 nM in the test on HBV (setting [1]), 21 nM with HBV (setting [2]), 230 nM in the test on HBV (genotype AeUS) (setting [3]) and 540 nM with HBV (genotype AeUS) (setting [4]).

Consider `Cc1nc2ccc(-n3cc(C(=O)O)c(=O)cc3-c3ccc(N4CCCC4)cc3)cc2s1` [Example 3-2, 1-(2-methylbenzo[d]thiazol-6-yl)-4-oxo-6-(4-(pyrrolidin-1-yl)phenyl)-1,4-dihydropyridine-3-carboxylic acid], for which the IC50 in the test on HBV (setting [1]) was 9 nM; in the test on HBV (setting [2]) it was 3.1 nM; in the test on HBV (genotype AeUS) (setting [3]), 470 nM; with HBV (genotype AeUS) (setting [4]), 150 nM.

As to `O=C(O)c1cn(-c2ccc3nc(N4CCCC4)sc3c2)c(-c2ccc(N3CCCC3)cc2)cc1=O` [Example 3-3, 4-oxo-1-(2-(pyrrolidin-1-yl)benzo[d]thiazol-6-yl)-6-(4-(pyrrolidin-1-yl)phenyl)-1,4-dihydropyridine-3-carboxylic acid], the IC50 in the test with HBV (setting [1]) came out at 2 nM; in the test on HBV (setting [2]) it was 5 nM; in the test on HBV (genotype AeUS) (setting [3]), 52 nM; in the test with HBV (genotype AeUS) (setting [4]) it was 77 nM.

For the compound `COC[C@H]1CCCN1c1nc2ccc(-n3cc(C(=O)O)c(=O)cc3-c3ccc(N4CCCC4)cc3)cc2s1` [Example 3-10, (R)-1-(2-(2-(methoxymethyl)pyrrolidin-1-yl)benzo[d]thiazol-6-yl)-4-oxo-6-(4-(pyrrolidin-1-yl)phenyl)-1,4-dihydropyridine-3-carboxylic acid], the half-maximal inhibitory concentration (IC50) in the test on HBV (setting [1]) was 2.8 nM; in the test with HBV (setting [2]), 1.3 nM; in the test with HBV (genotype AeUS) (setting [3]), 15 nM; in the test with HBV (genotype AeUS) (setting [4]), 39 nM.

Regarding `COC[C@H]1CCCN1c1nc2ccc(-n3cc(C(=O)O)c(=O)cc3-c3ccc(N4CCCC4)c(Br)c3)cc2s1` [Example 5-6, (R)-6-(3-bromo-4-(pyrrolidin-1-yl)phenyl)-1-(2-(2-(methoxymethyl)pyrrolidin-1-yl)benzo[d]thiazol-6-yl)-4-oxo-1,4-dihydropyridine-3-carboxylic acid], the IC50 in the test on HBV (genotype AeUS) (setting [3]) is 41 nM; in the test on HBV (genotype AeUS) (setting [4]), 62 nM.

Turning to `COCCN(CCOC)c1nc2ccc(-n3cc(C(=O)O)c(=O)cc3-c3ccc(N4CCCC4)c(Cl)c3)cc2s1` [Example 6-2], the IC50 amounted to 25 nM in the test on HBV (genotype AeUS) (read-out: IC50 HBV-DNA) and 81 nM in the test on HBV (genotype AeUS) (read-out: IC50 HBsAg).

Turning to `COC[C@H]1CCCN1c1nc2ccc(-n3cc(C(=O)O)c(=O)cc3-c3ccc(N4CCCC4)c(Cl)c3)cc2s1` [Example 6-3, (R)-6-(3-chloro-4-(pyrrolidin-1-yl)phenyl)-1-(2-(2-(methoxymethyl)pyrrolidin-1-yl)benzo[d]thiazol-6-yl)-4-oxo-1,4-dihydropyridine-3-carboxylic acid], the IC50 with HBV (genotype AeUS) (setting [3]) was determined as 30 nM; in the test on HBV (genotype AeUS) (setting [4]), 57 nM.

In the case of `COCCN(CCOC)c1nc2ccc(-n3cc(C(=O)O)c(=O)cc3-c3ccc(N4CC[C@@H](OC)C4)cc3)cc2s1` [Example 10-3], the IC50 in the test with HBV (genotype AeUS) (read-out: IC50 HBV-DNA) was 47 nM; with HBV (genotype AeUS) (read-out: IC50 HBsAg) it was 56 nM.

Consider `CCN1CCN(c2nc3ccc(-n4cc(C(=O)O)c(=O)cc4-c4ccc(N5CC[C@@H](OC)C5)cc4)cc3s2)CC1` [Example 10-4, (R)-1-(2-(4-ethylpiperazin-1-yl)benzo[d]thiazol-6-yl)-6-(4-(3-methoxypyrrolidin-1-yl)phenyl)-4-oxo-1,4-dihydropyridine-3-carboxylic acid], for which the IC50 worked out at 61 nM with HBV (genotype AeUS) (setting [3]) and 78 nM in the test with HBV (genotype AeUS) (setting [4]).

Consider `COCCN(CCOC)c1nc2ccc(-n3cc(C(=O)O)c(=O)cc3-c3ccc(N4CC[C@@H](OC)C4)c(Cl)c3)cc2s1` [Example 12-1, (R)-1-(2-(bis(2-methoxyethyl)amino)benzo[d]thiazol-6-yl)-6-(3-chloro-4-(3-methoxypyrrolidin-1-yl)phenyl)-4-oxo-1,4-dihydropyridine-3-carboxylic acid], for which the IC50 with HBV (genotype AeUS) (setting [3]) was less than 8 nM; with HBV (genotype AeUS) (setting [4]) it was 11 nM.

For the compound `COCCN1CCN(c2nc3ccc(-n4cc(C(=O)O)c(=O)cc4-c4ccc(N5CC[C@@H](OC)C5)c(Cl)c4)cc3s2)CC1` [Example 12-2, (R)-6-(3-chloro-4-(3-methoxypyrrolidin-1-yl)phenyl)-1-(2-(4-(2-methoxyethyl)piperazin-1-yl)benzo[d]thiazol-6-yl)-4-oxo-1,4-dihydropyridine-3-carboxylic acid], the IC50 came to 28 nM in the test with HBV (genotype AeUS) (setting [3]) and 42 nM in the test on HBV (genotype AeUS) (setting [4]).
